Source: patent US12570648B2, “6,7-dihydro-5H-pyrido[2,3-c]pyridazine derivatives and related compounds as Bcl-xL protein inhibitors and pro-apoptotic agents for treating cancer” (LES LABORATOIRES SERVIER, priority 2019, dated 2026)

Experiments:
[1] = target: His-His-(EK)-hsBCLXL(2-197)[N197C] (Homo sapiens (Human), UniProt Q07817, N197C); assay: Fluorescence quenching assay; type: binding; settings: 1 nM Cy5-labelled protein, 400 nM PUMA peptide, 2 hours at 23° C.; KI determined from IC50
Excerpt: Fluorescence quenching assay measures the change in fluorescence intensity of C-terminally Cy5-labelled BCL-xL protein, His-His-(EK)-hsBCLXL(2-197)[N197C] (UniProtKB®
which is linked in C-terminal region to the amino acid X which corresponds to a cysteine labelled on the sulfur with Sulfo-Cyanine5 from Lumiprobe GmbH catalogue number 13380, upon binding of a C-terminally labelled peptide derived from PUMA (UniProtKB® primary accession number Q9BXH1) having an aminoacid sequence (SEQ ID:04): [[…]] which is linked in C-terminal region to the amino acid X′ where X′ is cysteine labelled on the sulfur with TQ5WS from AAT Bioquest catalogue number 2079.
The addition of a compound which binds competitively to the same site as the peptide will result in an increase in the fluorescence intensity of the protein due to displacement of the fluorescence quencher.
An 11-point serial dilution of each compound was prepared in DMSO, the final buffer conditions were 10 mM 4-(2-hydroxyethyl)-1-piperazineethanesulfonic acid [HEPES], 150 mM NaCl, 0.05% Tween 20, pH 7.4 and 5% DMSO. The final protein concentration in the assay was 1 nM with the peptide present at 400 nM. The experiments were incubated for 2 hours at 23° C. before fluorescence intensity was measured on a Biotek SynergyNeo plate reader (Excitation 620 nm, emission 680 nm). […] The K1 values were determined from the IC50 values according to Cer et al, Nucleic Acids Res, 2009, Jul. 1; 37 (WebServer issue): W441-W445.

[2] = test system: MOLT-4 cells; assay: MOLT-4 cell viability using MTT assay; type: cell-based; settings: 48 h exposure
Description: MTT colorimetric assay is based on the mitochondrial reduction of tetrazolium salt by living cells.
Cells were cultured at 37° C. in a humidified atmosphere containing 5% CO2. […] At the end of incubation time, 15 μL of MTT solution (5 mg/ml) were added per well and the cells were incubated for another 4 h. […] IC50s were calculated using standard four-parametric curve fitting.

His-His-(EK)-hsBCLXL(2-197)[N197C], sequence (Q07817 2-197 N197C): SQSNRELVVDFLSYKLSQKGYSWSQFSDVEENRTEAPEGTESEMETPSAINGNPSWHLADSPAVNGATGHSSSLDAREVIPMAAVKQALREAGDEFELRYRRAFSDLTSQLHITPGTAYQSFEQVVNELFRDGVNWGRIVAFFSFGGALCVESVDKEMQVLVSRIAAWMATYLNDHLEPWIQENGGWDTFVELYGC

| Ki [1] [nM] | IC50 ([2]; Homo sapiens, MOLT-4, 48 h) [nM] | IC50 [2] [nM] | Compound |
| --- | --- | --- | --- |
| 0.0032 | 2.85 | – | Cc1c(Nc2nc3ccccc3s2)nnc2c1CCCN2c1ccc(-c2cnn(CC34CC5(C)CC(C)(C3)CC(OCCN(CCCCO)CCCCO)(C5)C4)c2C)c(C(=O)O)n1 [Example 140, 6-[3-(1,3-benzothiazol-2-ylamino)-4-methyl-6,7-dihydro-5H-pyrido[2,3-c]pyridazin-8-yl]-3-[1-[[3-[2-[bis(4-hydroxybutyl)amino]ethoxy]-5,7-dimethyl-1-adamantyl]methyl]-5-methyl-pyrazol-4-yl]pyridine-2-carboxylic acid] |
| 0.0046 | 0.852 | – | Cc1c(Nc2nc3ccccc3s2)nnc2c1CCCN2c1nc(C(=O)O)c(CCCOc2ccc(C#CCNCCCO)cc2F)s1 [Example 147, 2-[3-(1,3-benzothiazol-2-ylamino)-4-methyl-6,7-dihydro-5H-pyrido[2,3-c]pyridazin-8-yl]-5-[3-[2-fluoro-4-[3-(3-hydroxypropylamino)prop-1-ynyl]phenoxy]propyl]thiazole-4-carboxylic acid] |
| 0.002 | 1.32 | – | Cc1c(Nc2nc3ccccc3s2)nnc2c1CCCN2c1ccc(-c2cnn(CC34CC5(C)CC(C)(C3)CC(OCCNCCCCO)(C5)C4)c2C)c(C(=O)O)n1 [Example 132, 6-[3-(1,3-benzothiazol-2-ylamino)-4-methyl-6,7-dihydro-5H-pyrido[2,3-c]pyridazin-8-yl]-3-[1-[[3-[2-(4-hydroxybutylamino)ethoxy]-5,7-dimethyl-1-adamantyl]methyl]-5-methyl-pyrazol-4-yl]pyridine-2-carboxylic acid] |
| 0.0014 | 1.25 | – | Cc1c(Nc2nc3ccccc3s2)nnc2c1CCCN2c1ccc(-c2cnn(CC34CC5(C)CC(C)(C3)CC(OCCNCCOCCO)(C5)C4)c2C)c(C(=O)O)n1 [Example 136, 6-[3-(1,3-benzothiazol-2-ylamino)-4-methyl-6,7-dihydro-5H-pyrido[2,3-c]pyridazin-8-yl]-3-[1-[[3-[2-[2-(2-hydroxyethoxy)ethylamino]ethoxy]-5,7-dimethyl-1-adamantyl]methyl]-5-methyl-pyrazol-4-yl]pyridine-2-carboxylic acid] |
| 0.0065 | 0.575 | – | CNCC#Cc1ccc(OCCCc2sc(N3CCCc4c3nnc(Nc3nc5ccccc5s3)c4C)nc2C(=O)O)cc1 [Example 80, 2-[3-(1,3-Benzothiazol-2-ylamino)-4-methyl-6,7-dihydro-5H-pyrido[2,3-c]pyridazin-8-yl]-5-[3-[4-[3-(methylamino)prop-1-ynyl]phenoxy]propyl]thiazole-4-carboxylic acid] |
| 0.0015 | 0.616 | – | CNCCOC12CC3(C)CC(C)(CC(Cn4ncc(-c5ccc(N6CCCc7c6nnc(Nc6nc8ccccc8s6)c7C)nc5C(=O)O)c4C)(C3)C1)C2 [Example 94, 6-{3-[(1,3-benzothiazol-2-yl)amino]-4-methyl-6,7-dihydropyrido[2,3-c]pyridazin-8(5H)-yl}-3-[1-({3,5-dimethyl-7-[2-(methylamino)ethoxy]adamantan-1-yl}methyl)-5-methyl-1H-pyrazol-4-yl]pyridine-2-carboxylic acid] |
| 0.08 | 13.9 | – | Cc1c(Nc2nc3ccccc3s2)nnc2c1CCCN2c1nc(C(=O)O)c(CCCOc2ccc(CCCN3C[C@@H]4[C@H](C3)C4(F)F)cc2F)s1 [Example 72, 2-[3-(1,3-Benzothiazol-2-ylamino)-4-methyl-6,7-dihydro-5H-pyrido[2,3-c]pyridazin-8-yl]-5-[3-[4-[3-[(1R,5S)-6,6-difluoro-3-azabicyclo[3.1.0]hexan-3-yl]propyl]-2-fluoro-phenoxy]propyl]thiazole-4-carboxylic acid] |
| 0.0028 | 1.57 | – | Cc1c(Nc2nc3ccccc3s2)nnc2c1CCCN2c1ccc(-c2cnn(CC34CC5(C)CC(C)(C3)CC(OCCN(CCO)CCO)(C5)C4)c2C)c(C(=O)O)n1 [Example 134, 6-[3-(1,3-benzothiazol-2-ylamino)-4-methyl-6,7-dihydro-5H-pyrido[2,3-c]pyridazin-8-yl]-3-[1-[[3-[2-[bis(2-hydroxyethyl)amino]ethoxy]-5,7-dimethyl-1-adamantyl]methyl]-5-methyl-pyrazol-4-yl]pyridine-2-carboxylic acid] |
| 0.0027 | 0.429 | – | Cc1c(Nc2nc3ccccc3s2)nnc2c1CCCN2c1ccc(-c2cnn(CC34CC5(C)CC(C)(CC(CCCN6CCCC6)(C5)C3)C4)c2C)c(C(=O)O)n1 [Example 166, 6-[3-(1,3-benzothiazol-2-ylamino)-4-methyl-6,7-dihydro-5H-pyrido[2,3-c]pyridazin-8-yl]-3-[1-[[3,5-dimethyl-7-(3-pyrrolidin-1-ylpropyl)-1-adamantyl]methyl]-5-methyl-pyrazol-4-yl]pyridine-2-carboxylic acid] |
| 0.0067 | 9.53 | – | Cc1c(Nc2nc3ccccc3s2)nnc2c1CCCN2c1nc(C(=O)O)c(CCCOc2ccc(C#CCN(CC[C@H](O)CO)CC[C@H](O)CO)cc2F)s1 [Example 125, 2-{3-[(1,3-benzothiazol-2-yl)amino]-4-methyl-6,7-dihydro-5H-pyrido[2,3-c]pyridazin-8-yl}-5-{3-[4-(3-{bis[(3S)-3,4-dihydroxybutyl]amino}prop-1-yn-1-yl)-2-fluorophenoxy]propyl}-1,3-thiazole-4-carboxylic acid] |
| 0.0022 | 0.641 | – | Cc1c(Nc2nc3cccc(F)c3s2)nnc2c1CCCN2c1ccc(-c2cnn(CC34CC5(C)CC(C)(C3)CC(OCCN3CCCC3)(C5)C4)c2C)c(C(=O)O)n1 [Example 178, 3-[1-[[3,5-dimethyl-7-(2-pyrrolidin-1-ylethoxy)-1-adamantyl]methyl]-5-methyl-pyrazol-4-yl]-6-[3-[(7-fluoro-1,3-benzothiazol-2-yl)amino]-4-methyl-6,7-dihydro-5H-pyrido[2,3-c]pyridazin-8-yl]pyridine-2-carboxylic acid] |
| 0.0037 | 0.982 | – | Cc1c(Nc2nc3ccccc3s2)nnc2c1CCCN2c1ccc(-c2cnn(CC34CC5(C)CC(C)(C3)CC(OCCNCc3ccc(O)cc3)(C5)C4)c2C)c(C(=O)O)n1 [Example 149, 6-[3-(1,3-benzothiazol-2-ylamino)-4-methyl-6,7-dihydro-5H-pyrido[2,3-c]pyridazin-8-yl]-3-[1-[[3-[2-[(4-hydroxyphenyl)methylamino]ethoxy]-5,7-dimethyl-1-adamantyl]methyl]-5-methyl-pyrazol-4-yl]pyridine-2-carboxylic acid] |
| 0.0047 | 3.11 | – | Cc1c(Nc2nc3ccccc3s2)nnc2c1CCCN2c1nc(C(=O)O)c(CCCOc2ccc(C#CCNCC[C@H](O)CO)cc2F)s1 [Example 129, 2-[3-(1,3-benzothiazol-2-ylamino)-4-methyl-6,7-dihydro-5H-pyrido[2,3-c]pyridazin-8-yl]-5-[3-[4-[3-[[(3S)-3,4-dihydroxybutyl]amino]prop-1-ynyl]-2-fluoro-phenoxy]propyl]thiazole-4-carboxylic acid] |
| 0.17 | 226 | – | Cc1c(Nc2nc3ccccc3s2)nnc2c1CCCN2c1nc(C(=O)O)c(CCCOc2ccc(I)cc2F)s1 [Example 77, 2-[3-(1,3-Benzothiazol-2-ylamino)-4-methyl-6,7-dihydro-5H-pyrido[2,3-c]pyridazin-8-yl]-5-[3-(2-fluoro-4-iodo-phenoxy)propyl]thiazole-4-carboxylic acid] |
| 0.0021 | 0.137 | – | Cc1c(Nc2nc3ccccc3s2)nnc2c1CCCN2c1ccc(-c2cnn(CC34CC5(C)CC(C)(C3)CC(OCCN3CCCC3)(C5)C4)c2C)c(C(=O)O)n1 [Example 127, 6-[3-(1,3-benzothiazol-2-ylamino)-4-methyl-6,7-dihydro-5H-pyrido[2,3-c]pyridazin-8-yl]-3-[1-[[3,5-dimethyl-7-(2-pyrrolidin-1-ylethoxy)-1-adamantyl]methyl]-5-methyl-pyrazol-4-yl]pyridine-2-carboxylic acid] |
| 0.023 | 1.21 | – | Cc1c(Nc2nc3cccc(F)c3s2)nnc2c1CCCN2c1nc(C(=O)O)c(CCCOc2ccc(C#CCN(C)C)cc2F)s1 [Example 82, 5-[3-[4-[3-(Dimethylamino)prop-1-ynyl]-2-fluoro-phenoxy]propyl]-2-[3-[(7-fluoro-1,3-benzothiazol-2-yl)amino]-4-methyl-6,7-dihydro-5H-pyrido[2,3-c]pyridazin-8-yl]thiazole-4-carboxylic acid] |
| 0.0024 | – | 14.2 | Cc1c(Nc2nc3ccccc3s2)nnc2c1CCCN2c1ccc(-c2cnn(CC34CC5(C)CC(C)(C3)CC(OCCNCC[C@@H](O)CO)(C5)C4)c2C)c(C(=O)O)n1 [Example 93, 6-{3-[(1,3-benzothiazol-2-yl)amino]-4-methyl-6,7-dihydropyrido[2,3-c]pyridazin-8(5H)-yl}-3-(1-{[3-(2-{[(3R)-3,4-dihydroxybutyl]amino}ethoxy)-5,7-dimethyladamantan-1-yl]methyl}-5-methyl-1H-pyrazol-4-yl)pyridine-2-carboxylic acid] |
